Measured values published in BindingDB's records for doi:10.7270/Q2K64GGJ (University of Pittsburgh, 2006).
pIC50: −log10 of the molar value.

Molecular target: T1, Dual specificity protein phosphatase 1 (Homo sapiens, UniProt P28562)
T1 sequence (P28562 whole entry): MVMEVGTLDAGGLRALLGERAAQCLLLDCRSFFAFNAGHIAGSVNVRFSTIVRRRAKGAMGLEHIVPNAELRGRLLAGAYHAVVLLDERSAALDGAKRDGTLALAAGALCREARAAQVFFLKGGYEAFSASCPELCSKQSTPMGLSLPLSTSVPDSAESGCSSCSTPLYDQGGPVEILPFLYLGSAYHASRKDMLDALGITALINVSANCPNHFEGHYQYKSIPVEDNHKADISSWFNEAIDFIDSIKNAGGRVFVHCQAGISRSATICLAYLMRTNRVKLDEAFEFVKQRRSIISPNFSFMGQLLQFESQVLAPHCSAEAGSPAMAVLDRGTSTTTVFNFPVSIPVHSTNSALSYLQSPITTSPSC
Test: DUSP1 dephosphorylation activity inhibition – biochemical, in vitro, dose response, specificity testing, selectivity assay, confirmation (AID 442)

| SMILES | pIC50 |
| --- | --- |
| Cc1ccc2c(c1C)NC(C(=O)O)C1CC=CC21 (stereo not given) | 4.39 |
| CCn1nc(-c2ccccc2)nc2c(=O)n(C)c(=O)nc1-2 [1-Ethyl-6-methyl-3-phenyl-1H-pyrimido[5,4-e][1,2,4]triazine-5,7-dione] | 6.72 |
| CC(C)Cn1c(N)c(C(=O)COC(=O)c2cc(-c3ccco3)nc3ccccc23)c(=O)n(C)c1=O [2-(2-furanyl)-4-quinolinecarboxylic acid [2-[4-amino-1-methyl-3-(2-methylpropyl)-2,6-dioxo-5-pyrimidinyl]-2-oxoethyl] ester] | 4.77 |
| CCCCC[C@H](O)C=C[C@H]1C=CC(=O)[C@@H]1C/C=C\CCCC(=O)O [(Z)-7-[(1R,5S)-2-oxidanylidene-5-[(E,3S)-3-oxidanyloct-1-enyl]cyclopent-3-en-1-yl]hept-5-enoic acid] | 4.63 |
| COc1ccc(Cn2c(C)nc3c(c2=O)c2nc4ccccc4nc2n3Cc2ccco2)cc1 [MLS000079944] | 4.74 |
